Measured values published in US20240115654A1, “INTRAVENOUS ADMINISTRATION OF ENGINEERED ANTIMICROBIAL AMPHIPHILIC PEPTIDES” (priority 2021, published 2024).
Read-outs that look alike come from different tables or passages of the source. Peptide text beside a SMILES is read from it.

Settings: human, in vivo
[1] = single 1-hour infusion 0.05 mg/kg, Geometric Mean
[2] = single 1-hour infusion 0.05 mg/kg, Mean
[3] = single 1-hour infusion 0.05 mg/kg, Median
[4] = single 1-hour infusion 0.05 mg/kg, individual subjects
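Note: phase 1 study in human subjects given one IV dose of the peptide, enrolled in sequential ascending-dose cohorts and randomized to peptide or placebo.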

Method: Administration was a single 1-hour infusion.
Subjects were enrolled in sequential cohorts of peptide ascending dose levels and randomly assigned to receive a single IV administration of either peptide or placebo over 1 to 2 hours. […] In addition, the infusion volume was adjusted for Cohort 4 to maintain drug concentrations in line with Cohort 2
Blood samples for PK assessment were collected at pre-dose, at the midpoint of infusion, within 1 minute after the end-of-infusion and at 0.5, 1, 2, 4, 6, 8, 12, 20, 24, 36 and 48 hours after the end-of-infusion.
The pharmaceutical composition was stored at 2° C. to 8° C. for up to 14 days and then 15° C. to 25° C. for up to 48 hours for dosing.
Subjects were enrolled in sequential cohorts of peptide ascending dose levels and randomly assigned to receive a single IV administration of either peptide or placebo over 1 to 2 hours.

Work on `CC(C)[C@H](NC(=O)[C@H](Cc1c[nH]c2ccccc12)NC(=O)[C@H](CCCNC(=N)N)NC(=O)[C@H](CCCNC(=N)N)NC(=O)[C@@H](NC(=O)[C@@H](NC(=O)[C@H](CCCNC(=N)N)NC(=O)[C@@H](NC(=O)[C@@H](NC(=O)[C@H](CCCNC(=N)N)NC(=O)[C@H](CCCNC(=N)N)NC(=O)[C@H](Cc1c[nH]c2ccccc12)NC(=O)[C@@H](NC(=O)[C@H](CCCNC(=N)N)NC(=O)[C@H](CCCNC(=N)N)NC(=O)[C@@H](NC(=O)[C@H](CCCNC(=N)N)NC(=O)[C@H](CCCNC(=N)N)NC(=O)[C@@H](NC(=O)[C@H](Cc1c[nH]c2ccccc12)NC(=O)[C@H](CCCNC(=N)N)NC(=O)[C@@H](N)CCCNC(=N)N)C(C)C)C(C)C)C(C)C)C(C)C)C(C)C)C(C)C)C(C)C)C(=O)N[C@@H](CCCNC(=N)N)C(=O)N[C@@H](CCCNC(=N)N)C(N)=O` [SEQ ID NO: 1] (H-RRWVRRVRRVWRRVVRVVRRWVRR-NH2) yielded a clearance of 40.3 to 69.7 mL/min, an AUC(0-inf) (0.05 mg/kg, AUC0-inf, 0.05 mg/kg 1-hr infusion) of 1580 ng·h/mL and an AUC(0-t) (0.05 mg/kg, AUC0-t, 0.05 mg/kg 1-hr infusion) of 1280 ng·h/mL. For the same compound, the AUC(0-inf) (0.05 mg/kg, AUC0-∞) was 1580 ng·h/mL, the Cmax (0.05 mg/kg, 0.05 mg/kg 1-hr infusion) was 256 ng/mL and the AUC(0-t) (0.05 mg/kg, mean AUC0-t) was 1280 ng·h/mL. The half-life (0.05 mg/kg, t1/2, 0.05 mg/kg 1-hr infusion) was 7.4 h, the AUC(0-inf) (0.5 mg/kg, AUC0-inf, 0.5 mg/kg 2-hr infusion) was 9090 ng·h/mL and the AUC(0-t) (0.5 mg/kg, AUC0-t, 0.5 mg/kg 2-hr infusion) was 8330 ng·h/mL. It also gave a Cmax (0.5 mg/kg, 0.5 mg/kg 2-hr infusion) of 1830 ng/mL, a half-life (0.5 mg/kg, t1/2, 0.5 mg/kg 2-hr infusion) of 16.2 h and an AUC(0-inf) (1 mg/kg, AUC0-∞) of 21100 ng·h/mL. The AUC(0-t) (1 mg/kg, mean AUC0-t) was 21600 ng·h/mL, the AUC(0-t) (AUC0-24, single 1-hour infusion 0.05 mg/kg, Geometric Mean) was 1230 ng·h/mL and the AUC(0-t) (AUC0-24, single 1-hour infusion 0.05 mg/kg, Mean) was 1290 ng·h/mL. The AUC(0-t) (AUC0-24, single 1-hour infusion 0.05 mg/kg, Median) was 1350 ng·h/mL, the AUC(0-inf) (AUC0-inf, single 1-hour infusion 0.05 mg/kg, Geometric Mean) was 1600 ng·h/mL and the AUC(0-inf) (AUC0-inf, single 1-hour infusion 0.05 mg/kg, Mean) was 1610 ng·h/mL. For the same compound, the AUC(0-inf) (AUC0-inf, single 1-hour infusion 0.05 mg/kg, Median) was 1520 ng·h/mL, the AUC(0-inf) (AUC0-inf, single 1-hour infusion 0.05 mg/kg, individual subjects) was 1400 ng·h/mL and the AUC(0-t) (AUC0-t, single 1-hour infusion 0.05 mg/kg, Geometric Mean) was 1220 ng·h/mL. It also gave an AUC(0-t) (AUC0-t, single 1-hour infusion 0.05 mg/kg, Mean) of 1310 ng·h/mL, an AUC(0-t) (AUC0-t, single 1-hour infusion 0.05 mg/kg, Median) of 1350 ng·h/mL and a CL/F [1] of 0.522 mL/min/kg. The CL/F [2] was 0.525 mL/min/kg, the CL/F [3] was 0.548 mL/min/kg and the CL/F [4] was 0.595 mL/min/kg. It also gave a Cmax [1] of 251 ng/mL, a Cmax [2] of 256 ng/mL and a Cmax [3] of 262 ng/mL. For the same compound, the Tmax [1] was 1 h, the Tmax [2] was 1 h and the Tmax [3] was 1 h. For the same compound, the Tmax [4] was 1 h, the Tmax (single 1-hour infusion […], individual subjects) was 1 h and the half-life ([…], t1/2, […] 1-hr infusion) was 10.5 h. For the same compound, the half-life ([…], t1/2, […] 1-hr infusion (only 3 subjects)) was 19.9 h, the half-life ([…], t1/2, […] 2-hr infusion) was 13.2 h and the AUC(0-t) (iv, 0.05 mg/kg, AUC0-t, 0.05 mg/kg IV 1-hr infusion) was 1280 ng·h/mL. The AUC(0-inf) (iv, 0.05 mg/kg, AUC0-∞, 0.05 mg/kg IV 1-hr infusion) was 1580 ng·h/mL, the AUC(0-t) (iv, 0.05 mg/kg, AUC(0-24), Actual mean, Phase 1 subjects, 0.05 mg/kg IV) was 1290 ng·h/mL and the Cmax (iv, 0.05 mg/kg, 0.05 mg/kg IV 1-hr infusion) was 256 ng/mL. The half-life (iv, 0.05 mg/kg, t1/2, 0.05 mg/kg IV 1-hr infusion) was 7.37 h, the AUC(0-t) (iv, 0.5 mg/kg, AUC0-t, 0.5 mg/kg IV 2-hr infusion) was 8330 ng·h/mL and the AUC(0-inf) (iv, 0.5 mg/kg, AUC0-∞, 0.5 mg/kg IV 2-hr infusion) was 9090 ng·h/mL. The Cmax (iv, 0.5 mg/kg, 0.5 mg/kg IV 2-hr infusion) was 1830 ng/mL, the half-life (iv, 0.5 mg/kg, t1/2, 0.5 mg/kg IV 2-hr infusion) was 16.2 h and the AUC(0-t) (iv, 1 mg/kg, AUC0-t, 1 mg/kg IV 4-hr infusion) was 21600 ng·h/mL. For the same compound, the AUC(0-inf) (iv, 1 mg/kg, AUC0-∞, 1 mg/kg IV 4-hr infusion) was 21100 ng·h/mL, the Cmax (iv, 1 mg/kg, 1 mg/kg IV 4-hr infusion) was 2650 ng/mL and the half-life (iv, 1 mg/kg, t1/2, 1 mg/kg IV 4-hr infusion) was 20 h. The AUC(0-t) (iv, AUC0-24, Cohort 1, 0.05 mg/kg IV infusion, Geometric Mean) was 1230 ng·h/mL, the AUC(0-t) (iv, AUC0-24, Cohort 1, 0.05 mg/kg IV infusion, Mean) was 1290 ng·h/mL and the AUC(0-t) (iv, AUC0-24, Cohort 1, 0.05 mg/kg IV infusion, Median) was 1350 ng·h/mL. It also gave an AUC(0-t) (iv, AUC0-24, Cohort 1, 0.05 mg/kg IV infusion, cohort Geometric Mean) of 1230 ng·h/mL, an AUC(0-t) (iv, AUC0-24, Cohort 1, 0.05 mg/kg IV infusion, cohort Mean) of 1290 ng·h/mL and an AUC(0-t) (iv, AUC0-24, Cohort 1, 0.05 mg/kg IV infusion, cohort Median) of 1350 ng·h/mL. The AUC(0-t) (iv, AUC0-24, Cohort 4, 0.5 mg/kg IV infusion 2 hours, Geometric Mean) was 6930 ng·h/mL, the AUC(0-t) (iv, AUC0-24, Cohort 4, 0.5 mg/kg IV infusion 2 hours, Mean) was 7390 ng·h/mL and the AUC(0-t) (iv, AUC0-24, Cohort 4, 0.5 mg/kg IV infusion 2 hours, Median) was 7270 ng·h/mL. For the same compound, the AUC(0-t) (iv, AUC0-24, Cohort 4, 0.5 mg/kg IV, infusion 2 hours, cohort Geometric Mean) was 6930 ng·h/mL, the AUC(0-t) (iv, AUC0-24, Cohort 4, 0.5 mg/kg IV, infusion 2 hours, cohort Mean) was 7390 ng·h/mL and the AUC(0-t) (iv, AUC0-24, Cohort 4, 0.5 mg/kg IV, infusion 2 hours, cohort Median) was 7270 ng·h/mL. The AUC(0-t) (iv, AUC0-24, Cohort 5, 1 mg/kg IV infusion 4 hours, Geometric Mean) was 17300 ng·h/mL, the AUC(0-t) (iv, AUC0-24, Cohort 5, 1 mg/kg IV infusion 4 hours, Mean) was 18000 ng·h/mL and the AUC(0-t) (iv, AUC0-24, Cohort 5, 1 mg/kg IV infusion 4 hours, Median) was 14800 ng·h/mL. It also gave an AUC(0-inf) (iv, AUC0-inf, Cohort 1, 0.05 mg/kg IV infusion, Geometric Mean) of 1600 ng·h/mL, an AUC(0-inf) (iv, AUC0-inf, Cohort 1, 0.05 mg/kg IV infusion, Mean) of 1610 ng·h/mL and an AUC(0-inf) (iv, AUC0-inf, Cohort 1, 0.05 mg/kg IV infusion, Median) of 1520 ng·h/mL. The AUC(0-inf) (iv, AUC0-inf, Cohort 1, 0.05 mg/kg IV infusion, cohort Geometric Mean) was 1600 ng·h/mL, the AUC(0-inf) (iv, AUC0-inf, Cohort 1, 0.05 mg/kg IV infusion, cohort Mean) was 1610 ng·h/mL and the AUC(0-inf) (iv, AUC0-inf, Cohort 1, 0.05 mg/kg IV infusion, cohort Median) was 1520 ng·h/mL. The AUC(0-inf) (iv, AUC0-inf, Cohort 1, 0.05 mg/kg IV infusion, individual subject) was 1400 ng·h/mL, the AUC(0-inf) (iv, AUC0-inf, Cohort 1, 0.05 mg/kg IV infusion, individual subjects) was 1400 ng·h/mL and the AUC(0-inf) (iv, AUC0-inf, Cohort 4, 0.5 mg/kg IV infusion 2 hours, Geometric Mean) was 8530 ng·h/mL. For the same compound, the AUC(0-inf) (iv, AUC0-inf, Cohort 4, 0.5 mg/kg IV infusion 2 hours, Mean) was 9200 ng·h/mL, the AUC(0-inf) (iv, AUC0-inf, Cohort 4, 0.5 mg/kg IV infusion 2 hours, Median) was 9540 ng·h/mL and the AUC(0-inf) (iv, AUC0-inf, Cohort 4, 0.5 mg/kg IV, infusion 2 hours, cohort Geometric Mean) was 8530 ng·h/mL. For the same compound, the AUC(0-inf) (iv, AUC0-inf, Cohort 4, 0.5 mg/kg IV, infusion 2 hours, cohort Mean) was 9200 ng·h/mL, the AUC(0-inf) (iv, AUC0-inf, Cohort 4, 0.5 mg/kg IV, infusion 2 hours, cohort Median) was 9540 ng·h/mL and the AUC(0-inf) (iv, AUC0-inf, Cohort 5, 1 mg/kg IV infusion 4 hours, Geometric Mean) was 21100 ng·h/mL. For the same compound, the AUC(0-inf) (iv, AUC0-inf, Cohort 5, 1 mg/kg IV infusion 4 hours, Mean) was 21300 ng·h/mL, the AUC(0-inf) (iv, AUC0-inf, Cohort 5, 1 mg/kg IV infusion 4 hours, Median) was 21000 ng·h/mL and the AUC(0-inf) (iv, AUC0-inf, Cohort 5, 1 mg/kg IV infusion 4 hours, individual subject) was 22100 ng·h/mL. For the same compound, the AUC(0-t) (iv, AUC0-t, Cohort 1, 0.05 mg/kg IV infusion, Geometric Mean) was 1220 ng·h/mL, the AUC(0-t) (iv, AUC0-t, Cohort 1, 0.05 mg/kg IV infusion, Mean) was 1310 ng·h/mL and the AUC(0-t) (iv, AUC0-t, Cohort 1, 0.05 mg/kg IV infusion, Median) was 1350 ng·h/mL. The AUC(0-t) (iv, AUC0-t, Cohort 1, 0.05 mg/kg IV infusion, cohort Geometric Mean) was 1220 ng·h/mL, the AUC(0-t) (iv, AUC0-t, Cohort 1, 0.05 mg/kg IV infusion, cohort Mean) was 1310 ng·h/mL and the AUC(0-t) (iv, AUC0-t, Cohort 1, 0.05 mg/kg IV infusion, cohort Median) was 1350 ng·h/mL. The AUC(0-t) (iv, AUC0-t, Cohort 4, 0.5 mg/kg IV infusion 2 hours, Geometric Mean) was 7830 ng·h/mL, the AUC(0-t) (iv, AUC0-t, Cohort 4, 0.5 mg/kg IV infusion 2 hours, Mean) was 8440 ng·h/mL and the AUC(0-t) (iv, AUC0-t, Cohort 4, 0.5 mg/kg IV infusion 2 hours, Median) was 8540 ng·h/mL. It also gave an AUC(0-t) (iv, AUC0-t, Cohort 4, 0.5 mg/kg IV, infusion 2 hours, cohort Geometric Mean) of 7830 ng·h/mL, an AUC(0-t) (iv, AUC0-t, Cohort 4, 0.5 mg/kg IV, infusion 2 hours, cohort Mean) of 8440 ng·h/mL and an AUC(0-t) (iv, AUC0-t, Cohort 4, 0.5 mg/kg IV, infusion 2 hours, cohort Median) of 8540 ng·h/mL. It also gave an AUC(0-t) (iv, AUC0-t, Cohort 5, 1 mg/kg IV infusion 4 hours, Geometric Mean) of 20400 ng·h/mL, an AUC(0-t) (iv, AUC0-t, Cohort 5, 1 mg/kg IV infusion 4 hours, Mean) of 21200 ng·h/mL and an AUC(0-t) (iv, AUC0-t, Cohort 5, 1 mg/kg IV infusion 4 hours, Median) of 17600 ng·h/mL. For the same compound, the Cmax (iv, Cohort 1, 0.05 mg/kg IV infusion, Geometric Mean) was 251 ng/mL, the Cmax (iv, Cohort 1, 0.05 mg/kg IV infusion, Mean) was 256 ng/mL and the Cmax (iv, Cohort 1, 0.05 mg/kg IV infusion, Median) was 262 ng/mL. It also gave a Cmax (iv, Cohort 1, 0.05 mg/kg IV infusion, cohort Geometric Mean) of 251 ng/mL, a Cmax (iv, Cohort 1, 0.05 mg/kg IV infusion, cohort Mean) of 256 ng/mL and a Cmax (iv, Cohort 1, 0.05 mg/kg IV infusion, cohort Median) of 262 ng/mL. The Cmax (iv, Cohort 4, 0.5 mg/kg IV infusion 2 hours, Geometric Mean) was 1770 ng/mL and the Cmax (iv, Cohort 4, 0.5 mg/kg IV infusion 2 hours, Mean) was 1830 ng/mL.
